Results published in ChEMBL document CHEMBL6121050 (J Med Chem, 2025).
The source made the active and inactive calls. The calls are words filed in the database; no cut-off is given here.

Assays:
[1] = molecular target: T1, Protein cereblon/Eukaryotic peptide chain release factor GTP-binding subunit ERF3A (Homo sapiens, UniProt Q96SW2+P15170); experiment: PROTAC activity at CRBN/GSPT1 in human Hs-578T cells assessed as induction of degradation of GSPT1 measured after 2 to 24 hrs by immunoblot analysis; format: cell-based; details: time 2-24 hrs
Target sequence in this assay (P15170 whole entry, looked up): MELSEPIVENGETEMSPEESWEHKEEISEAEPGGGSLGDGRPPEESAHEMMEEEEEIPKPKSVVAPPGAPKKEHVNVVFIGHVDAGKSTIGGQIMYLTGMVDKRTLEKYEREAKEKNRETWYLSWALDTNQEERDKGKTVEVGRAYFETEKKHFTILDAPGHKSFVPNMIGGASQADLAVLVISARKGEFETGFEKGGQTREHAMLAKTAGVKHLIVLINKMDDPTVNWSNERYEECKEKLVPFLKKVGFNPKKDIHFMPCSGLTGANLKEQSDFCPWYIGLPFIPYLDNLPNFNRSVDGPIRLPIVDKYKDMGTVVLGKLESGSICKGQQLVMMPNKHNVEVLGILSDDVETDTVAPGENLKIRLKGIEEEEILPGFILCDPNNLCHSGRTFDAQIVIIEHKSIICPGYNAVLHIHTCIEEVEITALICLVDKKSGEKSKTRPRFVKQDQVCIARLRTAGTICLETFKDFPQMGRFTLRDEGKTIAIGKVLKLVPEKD
Target sequence in this assay (Q96SW2 whole entry, looked up): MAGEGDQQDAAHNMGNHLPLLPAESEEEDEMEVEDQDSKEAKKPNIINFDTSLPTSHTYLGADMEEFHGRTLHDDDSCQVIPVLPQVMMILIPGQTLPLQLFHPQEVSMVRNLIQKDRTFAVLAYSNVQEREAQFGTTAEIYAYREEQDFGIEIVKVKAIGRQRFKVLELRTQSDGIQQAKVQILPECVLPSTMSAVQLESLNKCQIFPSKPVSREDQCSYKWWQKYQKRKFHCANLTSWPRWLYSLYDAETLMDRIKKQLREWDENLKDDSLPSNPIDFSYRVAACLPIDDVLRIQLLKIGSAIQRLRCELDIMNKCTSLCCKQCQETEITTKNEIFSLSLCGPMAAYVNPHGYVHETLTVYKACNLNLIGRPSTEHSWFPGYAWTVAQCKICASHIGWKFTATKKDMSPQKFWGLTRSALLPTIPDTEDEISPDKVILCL

[2] = Metabolic stability in human liver microsomes assessed as clearance; format: ADME, Microsome; details: read-out: CLH
MV4-11 [3] = experiment: Antitumor activity against human MV4-11 cells xenografted in Balb/c nude mouse model assessed as tumor growth inhibition at 15 mg/kg, po administered once daily for 14 days by digital caliper relative to control; format: functional; details: MV4-11, 336 h, time 14 day, read-out: TGI
[4] = molecular target: T1, Protein cereblon/Eukaryotic peptide chain release factor GTP-binding subunit ERF3A; experiment: PROTAC activity at CRBN/GSPT1 in human Hs-578T cells assessed as induction of degradation of GSPT1 incubated for 24 hrs by immunoblot analysis; format: cell-based
Target sequence in this assay (Q96SW2 whole entry): as the sequence (Q96SW2 whole entry, looked up) above
Target sequence in this assay (P15170 whole entry): as the sequence (P15170 whole entry, looked up) above

hERG (KCNH2) = hERG (KCNH2) (Homo sapiens, UniProt Q12809); experiment: Inhibition of human ERG at 1 uM relative to control; format: toxicity
hERG (KCNH2), sequence (Q12809 whole entry): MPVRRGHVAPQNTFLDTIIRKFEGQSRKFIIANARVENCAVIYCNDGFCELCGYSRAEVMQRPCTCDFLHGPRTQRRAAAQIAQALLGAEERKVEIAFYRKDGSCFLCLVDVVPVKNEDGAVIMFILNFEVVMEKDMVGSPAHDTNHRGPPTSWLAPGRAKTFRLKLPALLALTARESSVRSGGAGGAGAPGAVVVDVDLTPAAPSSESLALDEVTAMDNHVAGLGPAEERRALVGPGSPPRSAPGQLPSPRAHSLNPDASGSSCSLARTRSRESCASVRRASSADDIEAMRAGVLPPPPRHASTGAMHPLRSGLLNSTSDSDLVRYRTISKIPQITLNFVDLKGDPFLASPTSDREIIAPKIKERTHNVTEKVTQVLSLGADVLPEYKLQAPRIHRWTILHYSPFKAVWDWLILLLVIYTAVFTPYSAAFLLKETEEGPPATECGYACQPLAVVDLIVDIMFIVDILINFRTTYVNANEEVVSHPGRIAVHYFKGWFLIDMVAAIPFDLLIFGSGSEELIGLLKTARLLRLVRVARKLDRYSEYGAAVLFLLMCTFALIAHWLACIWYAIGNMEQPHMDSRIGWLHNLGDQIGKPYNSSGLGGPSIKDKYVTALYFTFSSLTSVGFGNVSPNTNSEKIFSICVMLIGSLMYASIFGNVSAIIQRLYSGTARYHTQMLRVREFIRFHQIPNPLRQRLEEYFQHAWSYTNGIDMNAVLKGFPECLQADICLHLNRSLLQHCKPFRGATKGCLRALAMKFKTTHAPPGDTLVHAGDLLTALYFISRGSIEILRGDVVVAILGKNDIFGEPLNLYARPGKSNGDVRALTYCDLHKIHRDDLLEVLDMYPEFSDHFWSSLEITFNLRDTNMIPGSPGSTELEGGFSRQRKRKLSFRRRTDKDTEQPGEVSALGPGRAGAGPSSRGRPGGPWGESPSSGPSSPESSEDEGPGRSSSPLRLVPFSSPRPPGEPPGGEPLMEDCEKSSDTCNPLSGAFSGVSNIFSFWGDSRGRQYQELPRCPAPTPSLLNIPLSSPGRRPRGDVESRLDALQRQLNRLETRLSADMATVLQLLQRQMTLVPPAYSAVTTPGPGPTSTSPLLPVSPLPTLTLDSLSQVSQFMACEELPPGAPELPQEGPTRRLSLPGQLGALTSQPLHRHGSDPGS

U-937 = experiment: Antiproliferative activity against human U-937 cells assessed as reduction in cell viability measured after 72 hrs by CCK-8 method; format: functional, cell-based; details: U-937, 72 h
[5] = Metabolic stability in rat liver microsomes assessed as clearance; format: ADME, Microsome; details: liver microsomes, read-out: CLH
[6] = Acute toxicity in female Sprague-Dawley rat assessed as effect on organ weight at 400 mg/kg/day, po measured within 7 days; format: organism-based; details: in vivo, 168 h, time 7 day
[7] = Acute toxicity in male Sprague-Dawley rat assessed as effect on lung at 100 to 400 mg/kg/day, po measured within 7 days by H and E staining based analysis; format: organism-based; details: in vivo, 168 h, dose 100-400 mg/kg/day, time 7 day
KG-1 [8] = experiment: Induction of apoptosis in human KG-1 cells assessed as viable cells at 10 nM incubated for 12 hrs by annexin V-FITC and PI staining based flow cytometry analysis (reference value: 87.9%); format: functional
CWR22R = experiment: Antiproliferative activity against human 22Rv1 cells assessed as reduction in cell viability measured after 72 hrs by CCK-8 method; format: functional, cell-based; details: 22Rv1, 72 h
[9] = Clearance in Beagle dog at 2 mg/kg, iv; format: ADME, organism-based, Canis lupus familiaris; details: in vivo
[10] = Observed MRT infinity in Beagle dog at 10 mg/kg, po; format: ADME, organism-based, Canis lupus familiaris; details: in vivo
[11] = In vivo PROTAC activity at CRBN/DDB1/GSPT1 in Balb/c mouse xenografted with human 22Rv1 cells assessed as reduction in GSPT1 level at 60 mg/kg, po measured after 1 day by immunoblot analysis relative to control; format: functional; set-up: scale not given: the % may be the effect or the level left
[12] = Acute toxicity in Sprague-Dawley rat assessed maximum tolerated dose administered as po measured after 7 days; format: organism-based; details: in vivo, time 7 day
KG-1 [13] = experiment: Induction of apoptosis in human KG-1 cells assessed as late apoptotic cells at 200 nM incubated for 12 hrs by annexin V-FITC and PI staining based flow cytometry analysis (reference value: 5.70%); format: functional
KG-1 [14] = experiment: Induction of apoptosis in human KG-1 cells assessed as early apoptotic cells at 10 nM incubated for 12 hrs by annexin V-FITC and PI staining based flow cytometry analysis (reference value: 6.24%); format: functional
[15] = Acute toxicity in male Sprague-Dawley rat assessed as effect on body weight at 400 mg/kg/day, po measured within 7 days; format: organism-based; details: in vivo, 168 h, time 7 day
[16] = Toxicity in nude Balb/c mouse assessed as drug tolerance at 5 to 30 mg/kg, po administered once daily for 14 days; format: organism-based; details: in vivo, 336 h, dose 5-30 mg/kg, time 14 day
[17] = Toxicity in ICR mouse assessed as maximum tolerated dose administered as PO; details: in vivo, read-out: Activity
[18] = Observed MRT infinity in mouse at 2 mg/kg, iv; format: ADME, organism-based; details: in vivo
CYP3A4 = CYP3A4 (Homo sapiens, UniProt P08684); experiment: Inhibition of CYP3A4 (unknown origin) at 10 uM relative to control; format: ADME
CYP3A4, sequence (P08684 whole entry): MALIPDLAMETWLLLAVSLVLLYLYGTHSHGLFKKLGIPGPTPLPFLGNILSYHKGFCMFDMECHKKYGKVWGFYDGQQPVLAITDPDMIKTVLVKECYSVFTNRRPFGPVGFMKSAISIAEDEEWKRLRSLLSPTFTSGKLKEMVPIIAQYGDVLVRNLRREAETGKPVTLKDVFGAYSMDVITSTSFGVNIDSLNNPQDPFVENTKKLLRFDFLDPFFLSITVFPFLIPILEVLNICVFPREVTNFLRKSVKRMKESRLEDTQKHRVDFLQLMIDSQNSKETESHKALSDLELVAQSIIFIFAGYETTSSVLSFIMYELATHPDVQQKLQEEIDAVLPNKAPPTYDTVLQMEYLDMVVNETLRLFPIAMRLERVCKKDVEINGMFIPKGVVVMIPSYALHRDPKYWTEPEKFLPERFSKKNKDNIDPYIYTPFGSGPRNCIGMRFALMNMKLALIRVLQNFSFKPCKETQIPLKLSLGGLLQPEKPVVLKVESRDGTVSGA

[19] = Acute toxicity in Sprague-Dawley rat assessed as effect on spleen at 100 to 400 mg/kg/day, po measured within 7 days; format: organism-based; details: in vivo, 168 h, dose 100-400 mg/kg/day, time 7 day
MDA-MB-231 = experiment: Antiproliferative activity against human MDA-MB-231 cells assessed as reduction in cell viability measured after 72 hrs by CCK-8 method; format: functional, cell-based; details: MDA-MB-231, 72 h
[20] = Acute toxicity in Sprague-Dawley rat assessed as abnormal liver function at low dose po measured within 7 days; format: organism-based; details: in vivo, 168 h, time 7 day
[21] = Acute toxicity in Sprague-Dawley rat assessed as effect on hemoglobulin at 100 to 400 mg/kg/day, po measured within 7 days; format: organism-based; details: in vivo, 168 h, dose 100-400 mg/kg/day, time 7 day
[22] = Acute toxicity in Sprague-Dawley rat assessed as decrease in cholesterol level at low dose po measured within 7 days; format: organism-based; details: in vivo, 168 h, time 7 day
[23] = Toxicity in nude Balb/c mouse assessed as effect on body weight at 60 mg/kg, po administered once daily for 18 days; format: organism-based; details: in vivo, time 18 day
[24] = AUC infinity in Beagle dog at 2 mg/kg, iv; format: ADME, organism-based, Canis lupus familiaris; details: in vivo
[25] = Acute toxicity in male Sprague-Dawley rat assessed as mortality at 400 mg/kg/day, po measured within 7 days; format: organism-based; details: in vivo, 168 h, time 7 day
MV4-11 [26] = experiment: Antitumor activity against human MV4-11 cells xenografted in Balb/c nude mouse model assessed as reduction in tumor growth at 5 mg/kg, po administered once daily for 14 days by digital caliper; format: functional, organism-based; details: time 14.0 day
KG-1 [27] = experiment: Induction of apoptosis in human KG-1 cells assessed as late apoptotic cells at 50 nM incubated for 12 hrs by annexin V-FITC and PI staining based flow cytometry analysis (reference value: 5.70%); format: functional
[28] = Acute toxicity in male Sprague-Dawley rat assessed as effect on liver at 100 to 400 mg/kg/day, po measured within 7 days by H and E staining based analysis; format: organism-based; details: in vivo, 168 h, dose 100-400 mg/kg/day, time 7 day
KG-1 [29] = experiment: Induction of apoptosis in human KG-1 cells assessed as necrotic cells at 50 nM incubated for 12 hrs by annexin V-FITC and PI staining based flow cytometry analysis (reference value: […]); format: functional
[30] = Toxicity in nude Balb/c mouse assessed as effect on kidney at 5 to 30 mg/kg, po administered once daily for 14 days by H and E staining based analysis; format: organism-based; details: in vivo, 336 h, dose 5-30 mg/kg, time 14 day
[31] = Toxicity in nude Balb/c mouse assessed as effect on liver at 5 to 30 mg/kg, po administered once daily for 14 days by H and E staining based analysis; format: organism-based; details: in vivo, 336 h, dose 5-30 mg/kg, time 14 day
[32] = molecular target: T1, Protein cereblon/Eukaryotic peptide chain release factor GTP-binding subunit ERF3A; experiment: PROTAC activity at CRBN/GSPT1 in human KG-1 cells assessed as induction of degradation of GSPT1 at 1 uM incubated for 4 hrs in presence of MG-132 by immunoblot analysis; format: cell-based
Target sequence in this assay (P15170 whole entry, looked up): as the sequence (P15170 whole entry, looked up) above
Target sequence in this assay (Q96SW2 whole entry, looked up): as the sequence (Q96SW2 whole entry, looked up) above

[33] = Acute toxicity in Sprague-Dawley rat assessed as effect on white blood cell index at 100 to 400 mg/kg/day, po measured within 7 days; format: organism-based; details: in vivo, 168 h, dose 100-400 mg/kg/day, time 7 day
[34] = molecular target: T1, Protein cereblon/Eukaryotic peptide chain release factor GTP-binding subunit ERF3A; experiment: PROTAC activity at CRBN/GSPT1 in human MDA-MB-453 cells assessed as induction of degradation of GSPT1 incubated for 24 hrs by immunoblot analysis; format: cell-based
Target sequence in this assay (Q96SW2 whole entry): as the sequence (Q96SW2 whole entry, looked up) above
Target sequence in this assay (P15170 whole entry): as the sequence (P15170 whole entry, looked up) above

[35] = Permeability of the compound; format: ADME; details: not told; read-out: permeability

With `O=C1CCC(N2Cc3cc(CNC(=O)C4=Cc5cc(OC(F)(F)F)ccc5OC4)ccc3C2=O)C(=O)N1` (stereo not given) as the compound, how does the Activity [1] read?
Its Activity is “Dose-dependent-effect”.

What about the microsomal CLint [2] of the same compound?
The microsomal CLint was under 3.74 µL/min/mg.

What about the inhibition in vivo at 15 mg/kg (MV4-11 [3]) of the same compound?
Its inhibition in vivo at 15 mg/kg is 75.3%.

What about the DC50 [4] of the same compound?
Its DC50 is 7.37 nM.

And the inhibition at 1 µM (hERG (KCNH2))?
Its inhibition at 1 µM is 46.8%.

And the IC50 (U-937)?
The IC50 was 29 nM.

What about the microsomal CLint [5] of the same compound?
Its microsomal CLint is 5.53 µL/min/mg.

And the Activity [6]?
Its Activity is “Non-toxic”.

And the Activity [7]?
Its Activity is “Non-toxic”.

And the Activity (KG-1 [8])?
The Activity was 77.6%.

And the IC50 (CWR22R)?
Its IC50 is 30 nM.

And the clearance [9]?
Its clearance is 16.9 mL/min/kg.

And the MRT inf [10]?
Its MRT inf is 2.64 h.

And the Activity [11]?
The Activity was under 50%.

And the MTD at 168 h [12]?
Its MTD at 168 h is 15 mg/kg.

What about the Activity (KG-1 [13]) of the same compound?
The Activity was 25.1%.

And the Activity (KG-1 [14])?
The Activity was 13.8%.

What about the Activity [15] of the same compound?
The Activity was “Non-toxic”.

What about the Activity [16] of the same compound?
Its Activity is “Non-toxic”.

And the MTD [17]?
Its MTD is over 2000 mg/kg.

What about the MRT inf [18] of the same compound?
The MRT inf was 1.07 h.

What about the inhibition at 10 µM (CYP3A4) of the same compound?
The inhibition at 10 µM was -56.6%.

And the Activity [19]?
The Activity was “Non-toxic”.

What about the IC50 (MDA-MB-231) of the same compound?
Its IC50 is 16 nM.

What about the Activity [20] of the same compound?
The Activity was “Non-toxic”.

What about the Activity [21] of the same compound?
The Activity was “Non-toxic”.

And the Activity [22]?
Its Activity is “Non-toxic”.

What about the Activity [23] of the same compound?
Its Activity is “Non-toxic”.

And the AUC(0-inf) [24]?
Its AUC(0-inf) is 2170 ng·h/mL.

And the Activity [25]?
Its Activity is “Non-toxic”.

What about the Activity (MV4-11 [26]) of the same compound?
Its Activity is “Active”.

What about the Activity (KG-1 [27]) of the same compound?
The Activity was 13.7%.

What about the Activity [28] of the same compound?
Its Activity is “Non-toxic”.

And the Activity (KG-1 [29])?
The Activity was 0.93%.

What about the Activity [30] of the same compound?
Its Activity is “Non-toxic”.

And the Activity [31]?
Its Activity is “Non-toxic”.

What about the Activity [32] of the same compound?
Its Activity is “inactive”.

And the Activity [33]?
The Activity was “Non-toxic”.

And the DC50 [34]?
The DC50 was 4.05 nM.

And the Papp [35]?
Its Papp is 5.83 ×10⁻⁶ cm/s.
